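Test compounds were applied to cells in 96-well plates for 48 hours at 5 doses. At the GI50, growth is halved.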 Activity calls are given as the source filed them. No stated cut-off is given here; in the data, active = GI50 up to about 1.1 µM and inactive = higher. Some results are limits rather than exact numbers.

Holding throughout (test): NCI tumour cell line growth inhibition, 48 h
For experiment [1], the system named is NCI-H460.
For experiment [2], the system named is HOP-92.
Experiment [3] concerns SR.
The subject of experiment [4] is SK-MEL-5.
Experiment [5] deals with EKVX.
Experiment [6] concerns OVCAR-3.
The subject of experiment [7] is KM12.
Experiment [8] relates to M14.
For experiment [9], the system named is SK-MEL-2.
For experiment [10], the system named is MCF7.
The subject of experiment [11] is UACC-62.
Experiment [12] concerns SNB-75.
The subject of experiment [13] is SNB-19.
The subject of experiment [14] is MDA-MB-435.
Experiment [15] has as its system RXF 393.
In experiment [16] the test system is MOLT-4.
Experiment [17] deals with NCI-H226.
Experiment [18] has as its system A549.
Experiment [19] deals with NCI/ADR-RES.
Experiment [20] has as its system MDA-N.

Regarding `O=C(O)C1[C@@H](C(=O)O)C1(Br)CBr` (stereo not given in full), the GI50 in [1], in experiment [2], in experiment [3], in [4], in [5] and in experiment [6] was > 100 µM (inactive) in each case. The GI50 in experiment [7], in experiment [8], in [9], in experiment [10], in experiment [11] and in [12] was > 100 µM (inactive) in each case. Besides, the GI50 in experiment [13], in experiment [14], in experiment [15], in [16], in [17] and in [18] was > 100 µM (inactive) in each case. For the same molecule, the GI50 in [19] and in experiment [20] was > 100 µM (inactive) throughout.
For `CC(=O)N1N=C(N)CC1=O`, the GI50 in [1], in experiment [2], in experiment [3], in [4], in experiment [5] and in experiment [6] was > 100 µM (inactive) each time. The GI50 in experiment [7], in experiment [8], in experiment [9], in experiment [10], in [11] and in [12] was > 100 µM (inactive) each time. Besides, the GI50 in [13], in experiment [14], in experiment [15], in [16], in [17] and in [18] was > 100 µM (inactive) throughout. Besides, the GI50 in [19] and in experiment [20] was > 100 µM (inactive) each time.
On to `O=C1CC(=O)c2c(N3CCCC3)sc(N3CCCC3)c21`, for which the GI50 in [1], in experiment [2], in [3], in experiment [4], in experiment [5] and in [6] was > 100 µM (inactive) throughout. In addition, the GI50 in [7], in experiment [8], in experiment [9], in experiment [10], in experiment [11] and in experiment [12] was > 100 µM (inactive) in each case. Further, the GI50 in [13] is > 100 µM (inactive); in experiment [14], > 100 µM (inactive); in [15], > 100 µM (inactive); in experiment [16], 59 µM (inactive); in [17], > 100 µM (inactive); in experiment [18] it was > 100 µM (inactive). Moreover, the GI50 in experiment [19] and in experiment [20] was > 100 µM (inactive) each time.
Take `O=CC(=C(I)I)c1ccccc1`: the GI50 in experiment [1] is 17.1 µM (inactive); in [2], 2.57 µM (inactive); in [3], 0.197 µM (active); in [4], 4.07 µM (inactive); in experiment [5] it was 11.5 µM (inactive); in experiment [6], 1.98 µM (inactive). Further, the GI50 in experiment [7] is 3.87 µM (inactive); in [8] it was 1.75 µM (inactive); in [9], 6.49 µM (inactive); in experiment [10], 3.11 µM (inactive); in experiment [11] it was 6.08 µM (inactive); in [12], 2.64 µM (inactive). Besides, the GI50 in experiment [13] is 7.78 µM (inactive); in experiment [14], 2.07 µM (inactive); in experiment [15], 1.88 µM (inactive); in [16], 0.289 µM (active); in experiment [17] it was 13.4 µM (inactive); in experiment [18] it was 20.2 µM (inactive). The GI50 in experiment [19] was 14.6 µM (inactive); in [20], 2.04 µM (inactive).
Take `COc1ccccc1C1C2=C(COC2=O)Oc2cc3c(cc21)OCO3` (stereo not given): the GI50 in [1] is 3.64 µM (inactive); in experiment [2], 8.3 µM (inactive); in experiment [3], 0.792 µM (active); in [4], 1.93 µM (inactive); in experiment [5], 2.29 µM (inactive); in [6], 2.55 µM (inactive). Besides, the GI50 in experiment [7] is 1.33 µM (inactive); in [8] it was 1.4 µM (inactive); in experiment [9], 5.15 µM (inactive); in experiment [10], 1.67 µM (inactive); in [11], 1.06 µM (active); in experiment [12], 3.51 µM (inactive). Also, the GI50 was 3.19 µM (inactive) in experiment [13]; 0.249 µM (active) in [14]; 1.69 µM (inactive) in [15]; 1.59 µM (inactive) in experiment [16]; 5.31 µM (inactive) in experiment [17]; 3.87 µM (inactive) in [18]. For the same molecule, the GI50 in experiment [19] was 2.31 µM (inactive); in experiment [20], 0.245 µM (active).
For `CCOC(=O)[C@H](O)[C@@H](O)C(=O)NCc1ccc(C(=O)c2ccccc2)cc1`, the GI50 in experiment [1], in [2], in [3], in [4], in [5] and in experiment [6] was > 100 µM (inactive) in each case. In addition, the GI50 in [7], in experiment [8], in experiment [9], in [10], in experiment [11] and in experiment [12] was > 100 µM (inactive) in each case. Moreover, the GI50 in experiment [13], in experiment [14], in experiment [15], in [16], in experiment [17] and in [18] was > 100 µM (inactive) throughout. Also, the GI50 in experiment [19] and in [20] was > 100 µM (inactive) each time.
As for `O=[N+]([O-])C(C(Cl)=C(Cl)Cl)=C(n1nnc2ccccc21)n1nnc2ccccc21`, the GI50 in experiment [1] was 51.6 µM (inactive); in experiment [2], 43.5 µM (inactive); in [3], 8.45 µM (inactive); in experiment [4] it was 34.2 µM (inactive); in [5] it was > 59.3 µM (inactive); in experiment [6], 24.9 µM (inactive). The GI50 in experiment [7] is > 58.5 µM (inactive); in experiment [8] it was 30.7 µM (inactive); in experiment [9], 42 µM (inactive); in [10], 28.1 µM (inactive); in [11], 16.1 µM (inactive); in [12], > 44.3 µM (inactive). Further, the GI50 is > 86.7 µM (inactive) in experiment [13]; 27.9 µM (inactive) in [14]; 20.2 µM (inactive) in experiment [15]; 9.33 µM (inactive) in [16]; > 58.7 µM (inactive) in experiment [17]; 48.5 µM (inactive) in experiment [18]. Further, the GI50 in experiment [19] was 32.4 µM (inactive); in [20] it was 23.9 µM (inactive).
In the case of `Cc1ccc2c(c1)C(=O)/C(=C1/CCc3ccc(C)cc31)C2`, the GI50 in [1] is > 100 µM (inactive); in experiment [2], > 100 µM (inactive); in experiment [3], 35.6 µM (inactive); in [4], > 100 µM (inactive); in [5] it was > 100 µM (inactive); in [6], > 100 µM (inactive). The GI50 in [7] was > 100 µM (inactive); in [8] it was > 100 µM (inactive); in [9] it was > 100 µM (inactive); in [10], > 100 µM (inactive); in experiment [11] it was > 100 µM (inactive); in experiment [12], 13.9 µM (inactive). Besides, the GI50 was 87.5 µM (inactive) in experiment [13]; > 100 µM (inactive) in experiment [14]; > 100 µM (inactive) in experiment [15]; > 100 µM (inactive) in experiment [16]; > 100 µM (inactive) in experiment [17]; > 100 µM (inactive) in [18]. The GI50 in experiment [19] and in experiment [20] was > 100 µM (inactive) throughout.

The values above are taken from ChEMBL document CHEMBL1201862, “PubChem BioAssay data set” (2004).
